This is an account of results in patent publication US20030148498A1, “Microorganism overproducing 5'-xanthylic acid” (priority 2001, published 2003).

For assay [1], the system named is Mutant strain CJXPK001. Description: Growth of mutant strain in minimum medium with 3,4-dehydroproline. Type of assay: cell-based, Corynebacterium ammoniagenes. Set-up: key: +: growth; −: no growth. As to conditions: 30° C., 5 days. The protocol: (§1) To be more specific, in this innovative research, we adopted Corynebacterium ammoniagenes KFCC 10743 as parent strain and treated it with UV radiation and mutation derivatives such as N-methyl-N′-nitro-N-nitrosoguanidine (NTG) according to ordinary procedure and, by adding 0 to 50 mg/L of proline analogue 3,4-dehydroproline (Sigma Company) in the minimum medium shown in the following Table 1, we developed growing mutant strains. From them, a strain which grows in 30 mg/L 3,4-dehydroproline was separated, named CJXPK001. And, it was deposited under the Budapest Treaty to the Korea Culture Center of Microorganisms on Dec. 7, 2001 with accession Number KCCM 10340.
(§2) Further, after adding 0 to 50 mg/L of 3,4-dehydroproline in the minimum medium shown in the above Table 1 according to concentration levels, the medium was fermented at 30° C. for 5 days. And the whole process was scrutinized to find the growth rates of the mutant strain CJXPK001 and the parent strain KFCC 10743.

In assay [2] the test system is Parent strain KFCC 10743. Briefly: Growth of parent strain in minimum medium with 3,4-dehydroproline. The format is cell-based, Corynebacterium ammoniagenes. The arrangement: key to growth: +: growth; −: no growth. The following applies: 5 days; for growth: 30° C. As to the method: as §1, §2
[3] abbreviates: parent strain KFCC 10743, 30° C.

Regarding `O=C(O)C1C=CCN1` (centres unmarked) [3,4-dehydroproline], the growth entry in assay [1] (3,4-dehydroproline 30 mg/L) is recorded as “+”; in assay [1] (3,4-dehydroproline 40 mg/L) it was “−”; in assay [1] (3,4-dehydroproline 50 mg/L), “−”; in assay [2] (3,4-dehydroproline 5 mg/L), “+”; in assay [2] (3,4-dehydroproline 10 mg/L), “−”; in assay [2] (3,4-dehydroproline 20 mg/L), “−”. Further, the growth entry in assay [2] (3,4-dehydroproline 30 mg/L), in assay [2] (3,4-dehydroproline 40 mg/L) and in assay [2] (3,4-dehydroproline 50 mg/L) was “−” each time. Further, in assay [2] (setting [3]), the “3,4-dehydroproline concentration at which the strain showed resistance” value came out at 5 mg/L. The “3,4-dehydroproline concentration level at which no growth was observed” value in assay [2] (setting [3]) was “above 10 mg/L”.
